Here are results for twelve compounds from ChEMBL document CHEMBL1131277, “Functionalized 1,3-teraryls as a new class of hepatoprotectants. Part V” (1998).

What all share (format): functional
For assay [1], the system named is Rattus norvegicus. The assay is described as follows: Hepatoprotective activity against thioacetamide-induced toxicity in various levels of serum ALP in rats was evaluated at 10 mg/kg dose (p.o. x 7 days).
Assay [2] relates to Rattus norvegicus. The assay is described as follows: Hepatoprotective activity against thioacetamide-induced toxicity in various levels of serum GOT in rats was evaluated at 10 mg/kg dose (p.o. x 7 days).
The test system of assay [3] is Rattus norvegicus. The assay is described as follows: Hepatoprotective activity against thioacetamide-induced toxicity in various levels of serum GPT in rats was evaluated at 10 mg/kg dose (p.o. x 7 days).
The species named for assay [4] is Rattus norvegicus. The assay is described as follows: Percent protection afforded by the compound in serum alkaline phosphatase (APL) level was determined. Further details: concentration or dose not given beside the values.
Assay [5] is filed under the species Rattus norvegicus. Kind of assay: Percent protection afforded by the compound in serum glutamate oxaloacetate transaminase (GOT) level was determined. Further details: concentration or dose not given beside the values.
For assay [6], the species on record is Rattus norvegicus. Kind of assay: Percent protection afforded by the compound in serum glutamate pyruvate transaminase (GPT) level was determined. Further details: concentration or dose not given beside the values.

On to `COC(=O)c1c(SC)cc(-c2ccc(Br)cc2)cc1-c1ccc(Br)cc1`, for which the Enzyme level in assay [1] (route oral) was found to be 324.2 U l-1; in assay [2] (route oral) it was 202.1 U l-1; in assay [3] (route oral), 295.4 U l-1. The values for the Protection in assay [4], in assay [5] and in assay [6] were 10%, 25% and 36%, respectively.
For `COC(=O)c1c(SC)cc(-c2ccc(F)cc2)cc1-c1ccc(Cl)c(Cl)c1`, the Enzyme level in assay [1] (route oral) worked out at 235.5 U l-1; in assay [2] (route oral), 159.3 U l-1; in assay [3] (route oral), 186.3 U l-1. Moreover, the results for the Protection in assay [4], in assay [5] and in assay [6] were 46%, 57% and 71%, respectively.
For `COC(=O)c1c(SC)cc(-c2ccc(Cl)cc2)cc1-c1ccc(Cl)c(Cl)c1`, the Enzyme level in assay [1] (route oral) was 245.1 U l-1; in assay [2] (route oral) it was 147.3 U l-1; in assay [3] (route oral), 258.1 U l-1. Further, the Protection is given as 42% in assay [4], 66% in assay [5] and 49% in assay [6].
Take `COC(=O)c1c(SC)cc(-c2ccc(F)c(Cl)c2)cc1-c1cccc([N+](=O)[O-])c1`: the figures for the Enzyme level in assay [1] (route oral), in assay [2] (route oral) and in assay [3] (route oral) were 304.1 U l-1, 211.6 U l-1 and 370.2 U l-1, respectively. The Protection in assay [4] was found to be 18%; in assay [5], 18%; in assay [6] it was 12%.
In the case of `COC(=O)c1c(SC)cc(-c2ccc(F)cc2)cc1-c1ccc(F)cc1`, the values for the Enzyme level in assay [1] (route oral), in assay [2] (route oral) and in assay [3] (route oral) were 341.2 U l-1, 229.1 U l-1 and 370.2 U l-1, respectively. In addition, the Protection in assay [4] worked out at 3%; in assay [5], 5%; in assay [6] it was 12%.
For `COC(=O)c1c(SC)cc(-c2ccc(Cl)cc2)cc1-c1ccc([N+](=O)[O-])cc1`, the Enzyme level turned out to be 289.9 U l-1 in assay [1] (route oral), 229.4 U l-1 in assay [2] (route oral) and 270.4 U l-1 in assay [3] (route oral). For the same compound, the Protection in assay [4] was found to be 24%; in assay [5], 5%; in assay [6] it was 44%.
Consider SILYMARIN, for which the values for the Enzyme level in assay [1], in assay [2] and in assay [3] were 220 U l-1, 150 U l-1 and 218 U l-1, respectively. Also, the values for the Protection in assay [4], in assay [5] and in assay [6] were 52%, 64% and 61%, respectively.
On to `COC(=O)c1c(SC)cc(-c2ccc(Cl)cc2)cc1-c1cccc([N+](=O)[O-])c1`, for which the Enzyme level in assay [1] (route oral) stood at 203.6 U l-1; in assay [2] (route oral) it was 149.9 U l-1; in assay [3] (route oral) it was 190.1 U l-1. Further, the Protection in assay [4] stood at 60%; in assay [5] it was 64%; in assay [6], 70%.
Consider `COC(=O)c1c(SC)cc(-c2ccc(F)cc2)cc1-c1cccc([N+](=O)[O-])c1`, for which the Enzyme level came out at 307.2 U l-1 in assay [1] (route oral), 208.9 U l-1 in assay [2] (route oral) and 360.1 U l-1 in assay [3] (route oral). Besides, the Protection in assay [4] is reported as 17%; in assay [5], 20%; in assay [6] it was 15%.
Regarding `COC(=O)c1c(SC)cc(-c2ccc(Cl)cc2)cc1-c1ccc(Cl)cc1`, the Enzyme level in assay [1] (route oral) stood at 268.2 U l-1; in assay [2] (route oral), 186.3 U l-1; in assay [3] (route oral), 248.5 U l-1. For the same compound, the Protection is reported as 33% in assay [4], 37% in assay [5] and 51% in assay [6].
As for `COC(=O)c1c(SC)cc(-c2ccc(Cl)cc2)cc1-c1ccc(Br)cc1`, the Enzyme level in assay [1] (route oral) is 330.2 U l-1; in assay [2] (route oral), 208.3 U l-1; in assay [3] (route oral), 361.5 U l-1. In addition, the Protection in assay [4] is on record as 8%; in assay [5] it was 20%; in assay [6], 15%.
Turning to `COC(=O)c1c(SC)cc(-c2ccc(Cl)cc2)cc1-c1ccc(F)cc1`, the Enzyme level in assay [1] (route oral) amounted to 334.2 U l-1; in assay [2] (route oral), 222.3 U l-1; in assay [3] (route oral), 392.3 U l-1. The Protection is recorded as 6% in assay [4], 10% in assay [5] and 5% in assay [6].
